Reference: patent publication US20130053305A1, “PEPTIDE COMPOUNDS THAT CAN BE USED AS ANTIBACTERIAL AGENTS” (UNIVERSIDAD DE BARCELONA, priority 2010, published 2013)
Like-named read-outs stand apart in the source and are kept apart here. Positions of bridges follow the written chain, without caps; N, C: chain ends. Non-standard residues stand in square brackets, D forms with d. Residues, ends and D or L forms follow the SMILES beside them. *: point of attachment. Nonanoyl = CCCCCCCCC(=O)*; X1 = CC[C@H](C)CCCCC(=O)*; Dab = NCC[C@H](N)C(=O)O

Key:
[1] = system: Salmonella typhimurium ATCC 14028; assay type: cell-based
Method: (§1) The antibacterial activity of the lipopeptides was measured in sterile 96-well plates (Corning Costar 3598 microtiter plates). Samples of a final volume of 200 μL were prepared as follows: aliquots (100 μL) of a suspension containing bacteria at a concentration of 10^5 colony-forming units/mL in culture medium (MH, Muller Hinton Broth, Difco, USA), adjusted at pH 7.4, were added to 100 μL of solution containing the peptide prepared from a stock solution of 1 mg/mL peptide in water in serial 2-fold dilutions in MH broth adjusted to pH 7.4 (Jorgensen and Turnide, 2003).
(§2) Inhibition of bacterial growth was determined by measuring the absorbance at 492 nm with a Absorbance Microplate reader ELx 800 (Bio-tek Instruments) after an incubation of 24-48 h at 37° C. Antibacterial activities are expressed as the MIC, the concentration at which no growth is observed after 24-48 h of incubation.
(§3) Microorganisms were cultured on Tryptycase Soy Broth (Pronadisa, Barcelona) and incubated at 37° C. until bacterial growth was observed. Then a loopful was streaked on Trypticase Soy Agar (Pronadisa, Barcelona) and incubated at 37° C. until colony formation occurred. Microorganisms were preserved on cryobilles (EAS laboratoire, France) at −20° C.
(§4) Bacterial strains used for the antibacterial activity tests were obtained from the American Type Culture Collection (ATCC, Rockville, Md., USA):
(§5) Escherichia coli ATCC 8739 Pseudomonas aeruginosa ATCC 9027 Salmonella typhimurium ATCC 14028

[2] = system: Escherichia coli ATCC 8739; assay type: cell-based
Method: as §1, §2, §3, §4, §5

[3] = system: Pseudomonas aeruginosa ATCC 9027; assay type: cell-based
Method: as §1, §2, §3, §4, §5

[4] = system: Mycobacterium phlei ATCC 41423; assay type: cell-based
Method: as §1, §2, §3
(§6) Bacterial strains used for the antibacterial activity tests were obtained from the American Type Culture Collection (ATCC, Rockville, Md., USA): […]

[5] = system: Staphylococcus aureus ATCC 6538; assay type: cell-based
Method: as §1, §2, §3, §6

[6] = system: Acinetobacter sp ATCC 5798; assay type: cell-based
Method: as §1, §2, §3, §4
Acinetobacter sp ATCC 5798

[7] = system: Microccous luteus ATCC 9341; assay type: cell-based, Micrococcus luteus
Method: as §1, §2, §3, §6

Gram positive bacteria = experiment: Antibacterial test, summary for Gram positive bacteria; assay type: cell-based; conditions: summary in words
Method: as §1, §2, §3, §6

[8] = MH broth pH 7.4, 24-48 h at 37° C.
[9] = Table 2 values displayed in micromolar units
[10] = Table 1 values displayed in micromolar units

| Structure (SMILES) | MIC Salmonella typhimurium 14028 ([1]; ATCC 14028) | MIC Salmonella typhimurium 14028 ([1]; ATCC 14028, pH 7.4) | MIC Escherichia coli 8739 ([2]; ATCC 8739) | MIC Pseudomonas aeruginosa 9027 ([3]; ATCC 9027) | MIC Pseudomonas aeruginosa 9027 ([3]; ATCC 9027, pH 7.4) | MIC Micobacterium phlei ([4]; ATCC 41423) | MIC Micobacterium phlei ([4]; ATCC 41423, pH 7.4) | MIC Staphylococcus aureus ([5]; ATCC 6538) | MIC Staphylococcus aureus [5, 8] | MIC Acinetobacter sp ATCC 5798 ([6]; ATCC 5798) | MIC Micrococcus luteus ([7]; ATCC 9341) | MIC Micrococcus luteus [7, 8] | MIC Salmonella typhimurium 14028 [1, 8] | MIC Escherichia coli 8739 [2, 8] | MIC Pseudomonas aeruginosa 9027 [3, 8] | MIC Acinetobacter sp ATCC 5798 [6, 8] | MIC Micobacterium phlei [4, 8] | also measured |
| --- | --- | --- | --- | --- | --- | --- | --- | --- | --- | --- | --- | --- | --- | --- | --- | --- | --- | --- |
| CCCCCCCCC(=O)N[C@@H](CCCNC(=N)N)C(=O)N[C@H](C(=O)N[C@@H](CCN)C(=O)N[C@H]1CSSC[C@@H](C(=O)N[C@@H](CC(C)C)C(=O)N[C@@H](CCSC)C(=O)N[C@@H](Cc2c[nH]c3ccccc23)C(=O)N[C@@H](Cc2c[nH]c3ccccc23)C(=O)N[C@@H](CCSC)C(=O)N[C@@H](CC(C)C)C(N)=O)NC(=O)[C@H](CCN)NC(=O)[C@H](CCCNC(=N)N)NC(=O)[C@H](CC(C)C)NC(=O)[C@@H](Cc2ccccc2)NC(=O)[C@H](CCN)NC1=O)[C@@H](C)O [(Ib6), nonanoyl-Arg-Thr-Dab-cyclo(S—S)[Cys-Dab-DPhe-Leu-Arg-Dab-Cys]-Leu-Met-Trp-Trp-Met-Leu] (Nonanoyl-RT[Dab]C[Dab][dF]LR[Dab]CLMWWML-NH2; disulfide 4-10) | >14.56 µM | >32 µg/mL | >14.56 µM | >14.56 µM | >32 µg/mL | >14.56 µM | >32 µg/mL | 7.28 µM | 16 µg/mL | 3.64 to 7.28 µM | 3.64 µM | 8 µg/mL | – | – | – | – | – | MIC Escherichia coli 8739 ([2]; ATCC 8739, pH 7.4): >32 µg/mL; MIC Acinetobacter sp ATCC 5798 ([6]; ATCC 5798, pH 7.4): 8 to 16 µg/mL |
| CCCCCCCCC(=O)N[C@@H](CCCNC(=N)N)C(=O)N[C@H](C(=O)N[C@@H](CCN)C(=O)N[C@H]1CSSC[C@H](C(N)=O)NC(=O)[C@H](CCN)NC(=O)[C@H](CCCNC(=N)N)NC(=O)[C@H](CC(C)C)NC(=O)[C@@H](Cc2ccccc2)NC(=O)[C@H](CCN)NC1=O)[C@@H](C)O [(Ib13), nonanoyl-Arg-Thr-Dab-cyclo(S—S)[Cys-Dab-DPhe-Leu-Arg-Dab-DCys]] (Nonanoyl-RT[Dab]C[Dab][dF]LR[Dab][dC]-NH2; disulfide 4-10) | 11.98 µM | – | 5.99 µM | 2.99 µM | – | 5.99 to 11.98 µM | 8 to 16 µg/mL | 11.98 µM | 16 µg/mL | 11.98 µM | 5.99 µM | 8 µg/mL | 16 µg/mL | 8 µg/mL | 4 µg/mL | 16 µg/mL | – | – |
| CC[C@H](C)CCCCC(=O)N[C@@H](CCN)C(=O)N[C@H](C(=O)N[C@@H](CCN)C(=O)N[C@H]1CCNC(=O)[C@H]([C@@H](C)O)NC(=O)[C@H](CCN)NC(=O)[C@H](CCN)NC(=O)[C@H](CC(C)C)NC(=O)[C@@H](Cc2ccccc2)NC(=O)[C@H](CCN)NC1=O)[C@@H](C)O [PxB, (S)-6-methyloctanoyl-Dab-Thr-Dab-cyclo(4-10)[Dab-Dab-DPhe-Leu-Dab-Dab-Thr], reference compound] (X1-[Dab]T[Dab][Dab][Dab][dF]L[Dab][Dab]T; lactam 4-C) | – | – | – | – | – | – | – | – | >32 µg/mL | – | – | 32 µg/mL | 1 µg/mL | 1 to 2 µg/mL | 2 µg/mL | 0.5 µg/mL | 32 µg/mL | antibacterial activity in Gram positive bacteria (Gram positive bacteria): does not show activity against Gram positive bacteria; MIC Salmonella typhimurium 14028 [1, 9]: 0.84 µM; MIC Escherichia coli 8739 [2, 9]: 0.84 to 1.68 µM; MIC Pseudomonas aeruginosa 9027 [3, 9]: 1.68 µM; MIC Micobacterium phlei [4, 10]: 26.90 µM; MIC Staphylococcus aureus [5, 10]: >26.90 µM; MIC Acinetobacter sp ATCC 5798 [6, 9]: 0.42 µM; MIC Micrococcus luteus [7, 10]: 26.90 µM |
| CCCCCCCCC(=O)N[C@@H](CCCNC(=N)N)C(=O)N[C@H](C(=O)N[C@@H](CCN)C(=O)N[C@H]1CSSC[C@@H](C(=O)NCC(=O)N[C@@H](CCCNC(=N)N)C(=O)N[C@H](C(=O)N[C@@H](CCC(=O)O)C(=O)N[C@H](C(=O)N[C@@H](CC(C)C)C(=O)N[C@@H](Cc2ccc(O)cc2)C(=O)N[C@@H](CCCNC(=N)N)C(=O)NCC(=O)N[C@@H](CO)C(=O)N[C@@H](Cc2c[nH]c3ccccc23)C(N)=O)C(C)C)C(C)C)NC(=O)[C@H](CCN)NC(=O)[C@H](CCCNC(=N)N)NC(=O)[C@H](CC(C)C)NC(=O)[C@@H](Cc2ccccc2)NC(=O)[C@H](CCN)NC1=O)[C@@H](C)O [(Ib3)] (Nonanoyl-RT[Dab]C[Dab][dF]LR[Dab]CGRVEVLYRGSW-NH2; disulfide 4-10) | 6.06 µM | – | 6.06 µM | >12.12 µM | >32 µg/mL | 6.06 µM | – | 6.06 µM | 16 µg/mL | 1.51 µM | 3.03 to 6.06 µM | – | 16 µg/mL | 16 µg/mL | – | 4 µg/mL | 16 µg/mL | MIC Micrococcus luteus ([7]; ATCC 9341, pH 7.4): 8 to 16 µg/mL |
| CCCCCCCCC(=O)N[C@@H](CCCNC(=N)N)C(=O)N[C@H](C(=O)N[C@@H](CCN)C(=O)N[C@H]1CCNC(=O)[C@H]([C@@H](C)O)NC(=O)[C@H](CCN)NC(=O)[C@H](CCCNC(=N)N)NC(=O)[C@H](CC(C)C)NC(=O)[C@@H](Cc2ccccc2)NC(=O)[C@H](CCN)NC1=O)[C@@H](C)O [(Ia1), nonanoyl-Arg-Thr-Dab-cyclo(4-10)[Dab-Dab-DPhe-Leu-Arg-Dab-Thr]] (Nonanoyl-RT[Dab][Dab][Dab][dF]LR[Dab]T; lactam 4-C) | 6.08 to 12.16 µM | 8 to 16 µg/mL | 3.04 µM | 3.04 µM | – | 6.08 to 12.16 µM | 8 to 16 µg/mL | 24.32 µM | 32 µg/mL | 6.08 µM | 12.16 µM | 16 µg/mL | – | 4 µg/mL | 4 µg/mL | 8 µg/mL | – | – |
